According to ChEMBL document CHEMBL5715949, “Discovery of a selective irreversible BMX inhibitor for prostate cancer” (ACS Chem Biol, 2013):
Activity calls are given as the source filed them. No cut-off for these calls is given here.

Columns and labels:
[1] = system: RV-1; experiment: Antiproliferative activity against human RV-1 cells assessed as reduction in cell viability at 1. 5 to 20 uM incubated for 3 days by tryphan blue assay; format: functional, cell-based; details: dose 5-20 µM, time 3.0 day
[2] = Induction of cell cycle arrest in human RV-1 cells assessed as accumulation of cells at S phase at 200 nM incubated for 5 days by propidium iodide staining based flow cytometric analysis (reference value: 28.9 %); format: functional; details: time 5 day
[3] = molecular target: Cytoplasmic tyrosine-protein kinase BMX (Homo sapiens) (UniProt P51813); experiment: Inhibition of BMX (unknown origin) at < 10 uM by Z'LYTE assay
[4] = Inhibition of PI3K/AKT/mTOR signalling pathway in human RV-1 cells assessed as decrease in AKT phosphorylation at T308 residue at 200 nM incubated for 4 hrs by immunoblot analysis; format: cell-based
[5] = Inhibition of PI3K/AKT/mTOR signalling pathway in human RV-1 cells assessed as decrease in PRAS40 phosphorylation at T246 residue at 200 nM incubated for 4 hrs by immunoblot analysis; format: cell-based
[6] = Inhibition of PI3K/AKT/mTOR signalling pathway in human RV-1 cells assessed as decrease in 4EBP phosphorylation at T37/46 residue at 200 nM incubated for 5 days by immunoblot analysis; format: cell-based; details: time 5.0 day
[7] = Induction of cell cycle arrest in human RV-1 cells assessed as accumulation of cells at G1 phase at 200 nM incubated for 5 days by propidium iodide staining based flow cytometric analysis (reference value: 59.7 %); format: functional; details: time 5 day
[8] = Inhibition of PI3K/AKT/mTOR signalling pathway in human RV-1 cells assessed as decrease in S6K phosphorylation at T389 residue at 200 nM incubated for 5 days by immunoblot analysis; format: cell-based; details: time 5.0 day
[9] = Induction of cell cycle arrest in human RV-1 cells assessed as accumulation of cells at G2/M phase at 200 nM incubated for 5 days by propidium iodide staining based flow cytometric analysis (reference value: 11.4 %); format: functional; details: time 5 day
[10] = Inhibition of PI3K/AKT/mTOR signalling pathway in human RV-1 cells assessed as decrease in AKT phosphorylation at S473 residue at 200 nM incubated for 4 hrs by immunoblot analysis; format: cell-based
[11] = Down regulation of BMX protein expression in human RV-1 cells expressing wild type BMX assessed protein expression level at 2.5 uM pre incubated for 4 hrs followed by compound wash out and additon of CHX and measured after 16 hrs by immunoblot analysis (reference value: 0.98 to 1.01); format: functional
[12] = system: BaF3; experiment: Antiproliferative activity against mouse BaF3 cells expressing TEL-fused JAK1 assessed growth inhibition incubated for 2 to 5 days by CellTiter-Glo assay; format: functional; details: time 2-5 day
[13] = system: RV-1; experiment: Down regulation of BMX protein expression in human RV-1 cells expressing BMX C496S mutant at 5 uM incubated for 72 hrs by western blot analysis; format: functional, cell-based
[14] = Cytotoxicity against mouse BaF3 cells assessed growth inhibition incubated for 2 to 5 days by CellTiter-Glo assay; format: toxicity, cell-based; details: time 2-5 day
[15] = system: BaF3; experiment: Antiproliferative activity against mouse BaF3 cells expressing TEL-fused BLK assessed growth inhibition incubated for 2 to 5 days by CellTiter-Glo assay; format: functional; details: time 2-5 day
[16] = Down regulation of BMX protein expression in human RV-1 cells expressing BMX C496S mutant assessed protein expression level at 2.5 uM pre incubated for 4 hrs followed by compound wash out and additon of CHX and measured after 24 hrs by immunoblot analysis (reference value: 1.01 to 1.13); format: functional
[17] = Down regulation of BMX protein expression in human RV-1 cells expressing wild type BMX assessed protein expression level at 2.5 uM pre incubated for 4 hrs followed by compound wash out and additon of CHX and measured after 24 hrs by immunoblot analysis (reference value: 0.98 to 1.01); format: functional
[18] = system: BaF3; experiment: Antiproliferative activity against mouse BaF3 cells expressing TEL-fused TYK2 […] mutant assessed growth inhibition incubated for 2 to 5 days by CellTiter-Glo assay; format: functional; details: time 2-5 day
[19] = system: BaF3; experiment: Antiproliferative activity against mouse BaF3 cells expressing TEL-fused BMX assessed growth inhibition incubated for 2 to 5 days by CellTiter-Glo assay; format: functional, cell-based; details: time 2-5 day
[20] = system: BaF3; experiment: Antiproliferative activity against mouse BaF3 cells expressing TEL-fused JAK2 assessed growth inhibition incubated for 2 to 5 days by CellTiter-Glo assay; format: functional; details: time 2-5 day
[21] = system: RV-1; experiment: Down regulation of BMX protein expression in human RV-1 cells expressing wild type BMX at 5 uM incubated for 72 hrs by western blot analysis; format: functional, cell-based
[22] = system: BaF3; experiment: Antiproliferative activity against mouse BaF3 cells expressing TEL-fused JAK3 assessed growth inhibition incubated for 2 to 5 days by CellTiter-Glo assay; format: functional; details: time 2-5 day
[23] = Down regulation of BMX protein expression in human RV-1 cells expressing BMX C496S mutant assessed protein expression level at 2.5 uM pre incubated for 4 hrs followed by compound wash out and additon of CHX and measured after 16 hrs by immunoblot analysis (reference value: 1.01 to 1.13); format: functional

Chain of Cytoplasmic tyrosine-protein kinase BMX (Homo sapiens) (P51813 whole entry): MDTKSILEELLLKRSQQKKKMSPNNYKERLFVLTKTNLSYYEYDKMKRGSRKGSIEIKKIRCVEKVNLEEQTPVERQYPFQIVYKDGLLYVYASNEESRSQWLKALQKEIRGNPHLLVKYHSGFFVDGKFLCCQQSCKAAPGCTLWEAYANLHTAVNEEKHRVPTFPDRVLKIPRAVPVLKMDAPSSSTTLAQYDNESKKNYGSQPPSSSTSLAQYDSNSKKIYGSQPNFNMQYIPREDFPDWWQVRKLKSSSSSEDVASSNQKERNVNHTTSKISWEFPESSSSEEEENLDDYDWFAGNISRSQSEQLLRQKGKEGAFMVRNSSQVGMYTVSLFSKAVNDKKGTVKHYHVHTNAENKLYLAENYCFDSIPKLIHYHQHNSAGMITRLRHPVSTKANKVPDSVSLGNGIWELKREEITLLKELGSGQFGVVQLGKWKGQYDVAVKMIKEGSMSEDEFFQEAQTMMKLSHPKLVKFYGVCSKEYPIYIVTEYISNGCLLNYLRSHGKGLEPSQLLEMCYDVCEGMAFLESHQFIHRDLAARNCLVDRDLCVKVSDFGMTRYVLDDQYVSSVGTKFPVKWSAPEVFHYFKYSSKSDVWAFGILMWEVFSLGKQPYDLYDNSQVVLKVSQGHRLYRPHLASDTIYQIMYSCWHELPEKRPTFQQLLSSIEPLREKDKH

C=CC(=O)N1CCC[C@@H](n2nc(-c3ccc(Oc4ccccc4)cc3)c3c(N)ncnc32)C1
Activity [1]: Active

Cl.NC1(c2ccc(-c3nc4ccn5c(=O)[nH]nc5c4cc3-c3ccccc3)cc2)CCC1
Activity [2]: 29.1% | inhibition [3]: inactive | inhibition [4]: Active | inhibition [5]: Active | inhibition [6]: Active | Activity [7]: 60% | inhibition [8]: Active | Activity [9]: 10.9% | inhibition [10]: Active

CCC(=O)Nc1cc(-n2c(=O)ccc3cnc4ccc(NS(C)(=O)=O)cc4c32)ccc1C
Activity [11]: 0.64 | GI50 [12]: > 10 µM | Activity [13]: inactive | GI50 [14]: > 10 µM | GI50 [15]: > 10 µM | Activity [16]: 0.51 | Activity [17]: 0.72 | GI50 [18]: > 10 µM | GI50 [19]: > 10 µM | GI50 [20]: > 10 µM | Activity [21]: inactive | GI50 [22]: > 10 µM | Activity [23]: 0.8
